Measurements published in patent US10906873B2, “Substituted cyclic amides as herbicides” (FMC Corporation, priority 2015, dated 2021).

Tests used:
Assay type in all cases: in vivo
[1] = test system: barnyardgrass (Echinochloa crus-galli); assay: Test A preemergence, barnyardgrass; conditions: 0 to 100 scale
Description: (§1) Seeds of plant species selected from barnyardgrass (Echinochloa crus-galli), crabgrass (large crabgrass, Digitaria sanguinalis), kochia (Kochia scoparia), ragweed (common ragweed, Ambrosia elatior), morningglory (Ipomoea spp.), velvetleaf (Abutilon theophrasti), ryegrass, It. (Italian ryegrass, Lolium multiflorum), foxtail, giant (giant foxtail, Setaria faberii), wheat (Triticum aestivum), corn (Zea mays), and pigweed (Amaranthus retroflexus), were planted into a blend of loam soil and sand and treated preemergence with a directed soil spray using test chemicals formulated in a non-phytotoxic solvent mixture which included a surfactant. At the same time, plants selected from these crop and weed species and also blackgrass (Alopecurus myosuroides), and galium (catchweed bedstraw, Galium aparine), were planted in pots containing the same blend of loam soil and sand and treated with postemergence applications of test chemicals formulated in the same manner. Plants ranged in height from 2 to 10 cm and were in the one- to two-leaf stage for the postemergence treatment. Treated plants and untreated controls were maintained in a greenhouse for approximately 10 d, after which time all treated plants were compared to untreated controls and visually evaluated for injury. Plant response ratings, summarized in Table A, are based on a 0 to 100 scale where 0 is no effect and 100 is complete control. A dash (-) response means no test result.

[2] = test system: foxtail, giant (giant foxtail, Setaria faberii); assay: Test A preemergence, foxtail, giant; conditions: 0 to 100 scale
Description: as §1

kochia (Kochia scoparia) [3] = assay: Test A preemergence, kochia; conditions: 0 to 100 scale
Description: as §1

[4] = test system: ragweed (common ragweed, Ambrosia elatior); assay: Test A postemergence, ragweed; conditions: 0 to 100 scale
Description: as §1

[5] = test system: foxtail, giant (giant foxtail, Setaria faberii); assay: Test A postemergence, foxtail, giant; conditions: 0 to 100 scale
Description: as §1

[6] = test system: ducksalad (Heteranthera limosa); assay: Test B flooded paddy test, ducksalad; conditions: Flood, 500 g ai/ha; scale of 0 to 100 where 0 is no effect and 100 is complete control; 13 to 15 d
Method: (§2) Plant species in the flooded paddy test selected from rice (Oryza sativa), sedge, umbrella (small-flower umbrella sedge, Cyperus difformis), ducksalad (Heteranthera limosa), and barnyardgrass (Echinochloa crus-galli) were grown to the 2-leaf stage for testing. At time of treatment, test pots were flooded to 3 cm above the soil surface, treated by application of test compounds directly to the paddy water, and then maintained at that water depth for the duration of the test. Treated plants and controls were maintained in a greenhouse for 13 to 15 d, after which time all species were compared to controls and visually evaluated. Plant response ratings, summarized in Table B, are based on a scale of 0 to 100 where 0 is no effect and 100 is complete control. A dash (-) response means no test result.

[7] = test system: sedge, umbrella (small-flower umbrella sedge, Cyperus difformis); assay: Test B flooded paddy test, sedge, umbrella; conditions: Flood, 500 g ai/ha; scale of 0 to 100 where 0 is no effect and 100 is complete control; 13 to 15 d
Method: as §2

rice (Oryza sativa) = assay: Test B flooded paddy test, rice; conditions: Flood, 500 g ai/ha; scale of 0 to 100 where 0 is no effect and 100 is complete control; 13 to 15 d
Method: as §2

[8] = test system: ragweed (common ragweed, Ambrosia elatior); assay: Test A preemergence, ragweed; conditions: 0 to 100 scale
Description: as §1

[9] = test system: ryegrass, It. (Italian ryegrass, Lolium multiflorum); assay: Test A preemergence, ryegrass, It.; conditions: 0 to 100 scale
Description: as §1

[10] = test system: pigweed (Amaranthus retroflexus); assay: Test A preemergence, pigweed; conditions: 0 to 100 scale
Description: as §1

[11] = test system: galium (catchweed bedstraw, Galium aparine); assay: Test A postemergence, galium; conditions: 0 to 100 scale
Description: as §1

kochia (Kochia scoparia) [12] = assay: Test A postemergence, kochia; conditions: 0 to 100 scale
Description: as §1

corn (Zea mays) = assay: Test A postemergence, corn; conditions: 0 to 100 scale
Description: as §1

[13] = test system: wheat (Triticum aestivum); assay: Test A postemergence, wheat; conditions: 0 to 100 scale
Description: as §1

[14] = test system: barnyardgrass (Echinochloa crus-galli); assay: Test B flooded paddy test, barnyardgrass; conditions: Flood, 500 g ai/ha; scale of 0 to 100 where 0 is no effect and 100 is complete control; 13 to 15 d
Method: as §2

[15] = test system: ryegrass, It. (Italian ryegrass, Lolium multiflorum); assay: Test A postemergence, ryegrass, It.; conditions: 0 to 100 scale
Description: as §1

[16] = test system: blackgrass (Alopecurus myosuroides); assay: Test A postemergence, blackgrass; conditions: 0 to 100 scale
Description: as §1

[17] = test system: pigweed (Amaranthus retroflexus); assay: Test A postemergence, pigweed; conditions: 0 to 100 scale
Description: as §1

[18] = test system: barnyardgrass (Echinochloa crus-galli); assay: Test A postemergence, barnyardgrass; conditions: 0 to 100 scale
Description: as §1

Row | Structure (SMILES) | Plant response rating, Barnyardgrass ([1]; 125 g ai/ha) | Plant response rating, Barnyardgrass ([1]; 500 g ai/ha) | Plant response rating, Foxtail, Giant ([2]; 125 g ai/ha) | Plant response rating, Foxtail, Giant ([2]; 500 g ai/ha) | Plant response rating, Kochia (kochia (Kochia scoparia) [3]; 125 g ai/ha) | Plant response rating, Kochia (kochia (Kochia scoparia) [3]; 500 g ai/ha) | Plant response rating, Ragweed ([4]; 125 g ai/ha) | Plant response rating, Ragweed ([4]; 500 g ai/ha) | Plant response rating, Foxtail, Giant ([5]; 125 g ai/ha) | Plant response rating, Foxtail, Giant ([5]; 500 g ai/ha) | Plant response rating, Ducksalad [6] | Plant response rating, Sedge, Umbrella [7] | Plant response rating, Rice (rice (Oryza sativa)) | Plant response rating, Ragweed ([8]; 125 g ai/ha) | Plant response rating, Ragweed ([8]; 500 g ai/ha) | Plant response rating, Ryegrass, It. ([9]; 125 g ai/ha) | Plant response rating, Ryegrass, It. ([9]; 500 g ai/ha) | Plant response rating, Pigweed ([10]; 125 g ai/ha) | Plant response rating, Pigweed ([10]; 500 g ai/ha) | Plant response rating, Galium ([11]; 125 g ai/ha) | also measured
1 | O=C1NCC(Cc2cccc(F)c2F)C1C(=O)Nc1cccc(F)c1F (stereo not drawn) [Compound 8] | 0 | 0 | 0 | 50 | 0 | 0 | 0 | 0 | 0 | 0 | 0 | 0 | 0 | 0 | 0 | 0 | 0 | 0 | 0 | 0 | Plant response rating, Galium ([11]; 500 g ai/ha): 0; Plant response rating, Kochia (kochia (Kochia scoparia) [12]; 125 g ai/ha): 0; Plant response rating, Kochia (kochia (Kochia scoparia) [12]; 500 g ai/ha): 0; Plant response rating, Corn (corn (Zea mays); 125 g ai/ha): 0; Plant response rating, Corn (corn (Zea mays); 500 g ai/ha): 0; Plant response rating, Wheat ([13]; 125 g ai/ha): 0; Plant response rating, Wheat ([13]; 500 g ai/ha): 0; Plant response rating, Barnyardgrass [14]: 0; Plant response rating, Ryegrass, It. ([15]; 125 g ai/ha): 0; Plant response rating, Ryegrass, It. ([15]; 500 g ai/ha): 0; Plant response rating, Blackgrass ([16]; 125 g ai/ha): 0; Plant response rating, Blackgrass ([16]; 500 g ai/ha): 0; Plant response rating, Pigweed ([17]; 125 g ai/ha): 0; Plant response rating, Pigweed ([17]; 500 g ai/ha): 0; Plant response rating, Barnyardgrass ([18]; 125 g ai/ha): 0; Plant response rating, Barnyardgrass ([18]; 500 g ai/ha): 0
2 | O=C1NCC(Cc2ccccc2C(F)(F)F)C1C(=O)Nc1cccc(F)c1F (stereo not drawn) [Compound 9] | 0 | 50 | 0 | 50 | 0 | 50 | 0 | 0 | 0 | 0 | 40 | 0 | 0 | 0 | 30 | 0 | 0 | 0 | 0 | 0 | Plant response rating, Galium ([11]; 500 g ai/ha): 0; Plant response rating, Kochia (kochia (Kochia scoparia) [12]; 125 g ai/ha): 0; Plant response rating, Kochia (kochia (Kochia scoparia) [12]; 500 g ai/ha): 30; Plant response rating, Corn (corn (Zea mays); 125 g ai/ha): 0; Plant response rating, Corn (corn (Zea mays); 500 g ai/ha): 0; Plant response rating, Wheat ([13]; 125 g ai/ha): 0; Plant response rating, Wheat ([13]; 500 g ai/ha): 0; Plant response rating, Barnyardgrass [14]: 0; Plant response rating, Ryegrass, It. ([15]; 125 g ai/ha): 0; Plant response rating, Ryegrass, It. ([15]; 500 g ai/ha): 0; Plant response rating, Blackgrass ([16]; 125 g ai/ha): 0; Plant response rating, Blackgrass ([16]; 500 g ai/ha): 0; Plant response rating, Pigweed ([17]; 125 g ai/ha): 0; Plant response rating, Pigweed ([17]; 500 g ai/ha): 0; Plant response rating, Barnyardgrass ([18]; 125 g ai/ha): 10; Plant response rating, Barnyardgrass ([18]; 500 g ai/ha): 60
